According to US20100143992A1, “Process for Fermentive Preparation of Alcohols and Recovery of Product” (E. I du Pont de Nemours and Company, priority 2008, published 2010):

How the values were obtained:
[1] = Extraction of ethanol from an aqueous solution by ionic liquid; assay type: physicochemical; settings: 5 vol % ionic liquid; for g/L ethanol left in solution / mM Ethanol (in solution after extraction): 3 mL aqueous solution, about 31 g/L ethanol, overnight equilibration; for g/L ethanol left in solution: control 30.2; for mM Ethanol (in solution after extraction): control 655; for % EthOH Extracted: percentage of alcohol remaining in control
Protocol: (§2) The extraction of ethanol and isobutanol from an aqueous solution by selected ionic liquids was evaluated. […] Ethanol and isobutanol concentration in the solution was measured using HPLC as described above following thorough mixing and overnight equilibration of the contents of the vial.

[2] = test system: Lactobacillus fermentum (ATCC 14931); test: Glucose Uptake Index (GUI) of culture grown with ionic liquid; assay type: cell-based; settings: 5% (v/v) ionic liquid, 16 hours at 30° C., GUI of control without ionic liquid 55.9
Protocol: (§1) After 24 hours the test tube was removed and used immediately.

[3] = test system: Lactobacillus zeae (ATCC 15820); test: as above; assay type: cell-based; settings: 5% (v/v) ionic liquid, 16 hours at 30° C., GUI of control without ionic liquid 61.9
Protocol: as §1

[4] = Extraction of isobutanol from an aqueous solution by ionic liquid; assay type: physicochemical; settings: 5 vol % ionic liquid; for g/L isobutanol left in solution / mM isobutanol (in solution after extraction): 3 mL aqueous solution, about 31 g/L isobutanol, overnight equilibration; for g/L isobutanol left in solution: control 32.3; for mM isobutanol (in solution after extraction): control 436; for % isobutanol Extracted: percentage of alcohol remaining in control
Protocol: as §2

Compound	g/L ethanol left in solution [1] [g/L]	mM Ethanol (in solution after extraction) [1] [mM]	% EthOH Extracted [1] [%]	GUI of Sample (Glucose Utilization Index in the presence of ionic liquid phase) [2]	GUI of Sample (Glucose Utilization Index in the presence of ionic liquid phase) [3]	g/L isobutanol left in solution [4] [g/L]	mM isobutanol (in solution after extraction) [4] [mM]	% isobutanol Extracted [4] [%]
1-Butyl-3-methylimidazolium levulinate [[BMIM] [Lev]]	27.5	596	8.95	–	–	–	–	–
1-Ethyl-3-methylimidazolium levulinate [[EMIM] [Lev]]	–	–	–	32.3	41.4	–	–	–
CC1CCC(=O)N1CC[N+](C)(C)CCO.O=S(=O)([N-]S(=O)(=O)C(F)(F)F)C(F)(F)F (centres unmarked) [[MeDHEAP] [Tf2N], 1-(N,N,N-dimethyl(hydroxyethyl)aminoethyl)-5-methylpyrrolidone-2-one bis(trifluoromethane)sulfonamide]	–	–	–	–	–	30.9	417	4.68
CCOCC[N+](C)(C)CCN1C(=O)CCC1C (centres unmarked) [[MeDMEEAP] [HFPS]] [1-(N,N,N-dimethyl(ethylethoxy)aminoethyl)-5-methyl-pyrrolidine-2-one hexafluoropropanesulfonate]	30.2	656	0.00	34.5	46.9	31.3	422	3.38
CCOCC[N+](C)(C)CCN1C(=O)CCC1C (centres unmarked) [[MeDMEEAP] [Tf2N]] [1-(N,N,N-dimethyl(ethylethoxy)aminoethyl)-5-methyl-pyrrolidine-2-one bis(trifluoromethane)-sulfonamide]	29.4	637	2.66	37.6	49.5	29.5	398	9.48
COCC[N+](C)(C)CCN1C(=O)CCC1C (centres unmarked) [[MeDMMEAP] [HFPS], 1-(N,N,N-dimethyl(methylethoxy)aminoethyl)-5-methylpyrrolidin-2-one hexafluoropropanesulfonate]	29.7	645	1.48	31.3	45.1	31.4	423	3.00
CCC[N+](C)(C)CCN1C(=O)CCC1C.O=S(=O)([N-]S(=O)(=O)C(F)(F)F)C(F)(F)F (centres unmarked) [[MeDMPAP] [Tf2N], 1-(N,N,N-dimethylpropylaminoethyl)-5-methylpyrrolidone-2-one bis(trifluoromethane)sulfonamide]	–	–	–	–	–	28.7	387	12.7
COCC[N+](C)(C)CCN1C(=O)CCC1C.O=S(=O)([N-]S(=O)(=O)C(F)(F)F)C(F)(F)F (centres unmarked) [[[MeDMMEAP] [Tf2N], 1-(N,N,N-dimethyl(methylethoxy)aminoethyl)-5-methylpyrrolidone-2-one bis(trifluoromethane)sulfonamide]	29.6	643	1.88	–	–	28.8	389	12.1
